The source of these data is US20230212123A1, “Pyridine Inhibitors of Glucosylceramide Synthase and Therapeutic Methods Using the Same” (THE REGENTS OF THE UNIVERSITY OF MICHIGAN, priority 2020, published 2023).

One test concerns the target T1, GCS in MDCKII cells (Canis lupus familiaris, UniProt A0A8I3MXG6).
T1 construct: whole cellular lipids of wild type MDCKII cells were extracted; endogenous in cells; host or cells: wild type MDCKII cells
T1 sequence (A0A8I3MXG6 1-394): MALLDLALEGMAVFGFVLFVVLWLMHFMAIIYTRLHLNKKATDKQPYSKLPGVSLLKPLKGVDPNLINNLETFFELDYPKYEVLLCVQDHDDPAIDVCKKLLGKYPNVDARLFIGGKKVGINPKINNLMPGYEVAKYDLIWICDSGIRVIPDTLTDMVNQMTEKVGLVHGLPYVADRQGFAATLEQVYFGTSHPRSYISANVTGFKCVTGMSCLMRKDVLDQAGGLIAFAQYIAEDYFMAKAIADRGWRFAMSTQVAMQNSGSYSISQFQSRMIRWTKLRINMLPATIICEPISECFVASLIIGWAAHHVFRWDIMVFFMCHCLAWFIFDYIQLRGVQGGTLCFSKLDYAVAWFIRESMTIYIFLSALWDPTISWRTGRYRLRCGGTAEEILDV
Nature of the test: GCS inhibition in MDCKII cells (glucosylceramide content after 24 h). It counts as cell-based, canine. The following applies: 24 hours exposure, glucosylceramide level. As for the experimental part:
GCS Inhibition in MDCKII Cells (MDCKII IC50, Table 1)
MDCKII cells were routinely maintained in medium consisting of Opti-MEM/F12 (1:1), 5% FBS, 100 U/mL of penicillin, 100 µg/mL streptomycin and 200 mM L-glutamine. MDCKII cells were newly thawed from frozen ampules every two months.
Stock solutions of water-insoluble glycosphingolipid inhibitors (100 mM) were prepared by dissolving each inhibitor into 100% ethanol as previously described (3). The inhibitor-ethanol solutions then were diluted 50X into 2 mM delipidated bovine serum albumin-phosphate buffered saline solution to make water-soluble glycosphingolipid inhibitor-bovine serum albumin complexes. The inhibitor-bovine serum album complexes were sterile-filtered and stored at -20° C. Prior to use, portions of the inhibitor-bovine serum albumin complexes were further diluted with Opti-F12 to make treatment solutions. Equal amounts of bovine serum albumin and ethanol were added into the control cultures. Cells (5 x 10^5) were seeded into 10-cm culture dishes containing 10 ml of Opti-F12 with 5% FBS. After 24 hours, the medium was replaced with fresh serum-free Opti-F12 medium, and cells were exposed to candidate GCS inhibitors at concentrations of 0, 1, 3, 10, 30, 100 and 300 nM for 24 hours.
Following inhibitor treatment, whole cellular lipids of wild type MDCKII cells were extracted as previously described in detail (10). Briefly, cells were washed with ice-cold phosphate buffered saline, fixed by methanol, and collected with rubber scraper. Chloroform was then added to yield a theoretical ratio of chloroform:methanol:water at 1:2:0.8 (v/v/v) to form a mono-phase. Cell debris and proteins were removed by centrifugation at 2200 x g for 30 min. The supernatants were portioned by adding chloroform and 0.9% NaCl. The lower organic phases containing neutral glycosphingolipids lipids were washed with methanol and 0.9% NaCl, and subjected to base- and acid-hydrolysis (10). A portion of purified glycosphingolipids normalized to 100 nmol of total phospholipids was analyzed by high performance thin layer chromatography. The thin layer chromatography separations were processed twice. The plate pretreated with 1% sodium borate was first developed in a solvent system consisting of chloroform/methanol (98/2, v/v). After air drying, the plate was then developed in a solvent system containing chloroform/methanol/water (70/30/4, v/v/v). The levels of glucosylceramide were detected by charring with 8% cupric sulfate in 8% phosphoric acid, and quantified by densitometric scanning using ImageJ, NIH Image. Image data was analyzed, and the IC50 of each inhibitor was calculated using GraphPad Prism (version 5.03).

In test [1] the target is T2, glucosylceramide synthase (GCS) (Canis lupus familiaris, UniProt A0A8I3MXG6).
T2 construct: endogenous in cells; host or cells: MDCK cell homogenate
T2 sequence (A0A8I3MXG6 1-394): T1 sequence (A0A8I3MXG6 1-394)
Description: GCS inhibition in MDCK cell homogenates (Lysate IC50). Particulars: MDCK cell homogenate. Format: biochemical, canine. As to the method:
GCS Inhibition in MDCK Cell Homogenates (Lysate IC50, Table 1)
IC50 values for new compounds of the invention were determined as reported in Shayman J. A., Abe A. 2000. Glucosylceramide synthase: assay and properties. Methods Enzymol.311: 42-49.

A word on the IC50: it is the concentration that inhibits the measured activity by half. Regarding `COc1cc([C@@H](O)[C@@H](CN2CCCC2)NC(=O)CC2Cc3ccccc3C2)ccn1` [Example 8, 2-(2,3-dihydro-1H-inden-2-yl)-N-((1R,2R)-1-hydroxy-1-(2-methoxypyridin-4-yl)-3-(pyrrolidin-1-yl)propan-2-yl)acetamide], the concentration for half-maximal inhibition (IC50) came out at 94.6 nM on GCS in MDCKII cells and 56 nM in test [1].

As for `O=C(CC1Cc2ccccc2C1)N[C@H](CN1CCCC1)[C@H](O)c1ccc(OCC(F)(F)F)cn1` [Example 6, 2-(2,3-dihydro-1H-inden-2-yl)-N-((1S,2R)-1-hydroxy-3-(pyrrolidin-1-yl)-1-(5-(2,2,2-trifluoroethoxy)pyridin-2-yl)propan-2-yl)acetamide], the IC50 against GCS in MDCKII cells turned out to be 2.4 nM; in test [1], 21.7 nM.

Take `O=C(CC1Cc2ccccc2C1)N[C@H](CN1CCCC1)[C@H](O)c1cccc(Cl)n1` [Example 20, N-((1S,2R)-1-(6-chloropyridin-2-yl)-1-hydroxy-3-(pyrrolidin-1-yl)propan-2-yl)-2-(2,3-dihydro-1H-inden-2-yl)acetamide]: the half-inhibitory concentration (IC50) was 61 nM on GCS in MDCKII cells and 131 nM in test [1].

`O=C(CC1Cc2ccccc2C1)N[C@@H](CN1CCCC1)[C@@H](O)c1ccc(OC(F)(F)F)cn1` [Example 22, 2-(2,3-dihydro-1H-inden-2-yl)-N-((1R,2S)-1-hydroxy-3-(pyrrolidin-1-yl)-1-(5-(trifluoromethoxy)pyridin-2-yl)propan-2-yl)acetamide] showed an IC50 in test [1] of more than 1000 nM.

As to `O=C(CC1Cc2ccccc2C1)N[C@H](CN1CCCC1)[C@H](O)c1cccnc1` [Example 13, 2-(2,3-dihydro-1H-inden-2-yl)-N-((1R,2R)-1-hydroxy-1-(pyridin-3-yl)-3-(pyrrolidin-1-yl)propan-2-yl)acetamide], the IC50 against GCS in MDCKII cells was found to be 594 nM; in test [1] it was 182 nM.

For the molecule `COc1ccc([C@@H](O)[C@@H](CN2CCCC2)N(C)C(=O)CC2Cc3ccccc3C2)nc1` [Example 10], the IC50 at GCS in MDCKII cells came to 15.8 nM; in test [1], 37.4 nM.

With `O=C(CC1Cc2ccccc2C1)N[C@H](CN1CCCC1)[C@H](O)c1ccc(OC(F)(F)F)cn1` (racemic) [Example 5, 2-(2,3-dihydro-1H-inden-2-yl)-N-((1S,2R)-1-hydroxy-3-(pyrrolidin-1-yl)-1-(5-(trifluoromethoxy)pyridin-2-yl)propan-2-yl)acetamide], the IC50 on GCS in MDCKII cells was 6.5 nM; in test [1], 249 nM.

Regarding “2-(2,3-dihydro-1H-inden-2-yl)-N-((1R,2R)-1-hydroxy-1-(6-methoxypyridin-3-yl)-3-(pyrrolidin-1-yl)propan-2-yl)acetamide [Example 1]”, the IC50 (on GCS in MDCKII cells; in test [1]) was more than 1000 nM in each case.

Regarding `O=C(CC1Cc2ccccc2C1)N[C@H](CN1CCCC1)[C@H](O)c1ccccn1` [Example 4, 2-(2,3-dihydro-1H-inden-2-yl)-N-((1S,2R)-1-hydroxy-1-(pyridin-2-yl)-3-(pyrrolidin-1-yl)propan-2-yl)acetamide], the values for the IC50 (on GCS in MDCKII cells; in test [1]) were 16.9 nM and 152 nM, respectively.

Take `COc1cccnc1[C@@H](O)[C@@H](CN1CCCC1)NC(=O)CC1Cc2ccccc2C1` [Example 14, 2-(2,3-dihydro-1H-inden-2-yl)-N-((1S,2R)-1-hydroxy-1-(3-methoxypyridin-2-yl)-3-(pyrrolidin-1-yl)propan-2-yl)acetamide]: the IC50 is 444 nM against GCS in MDCKII cells and more than 2000 nM in test [1].

`O=C(CC1Cc2ccccc2C1)N[C@@H](CN1CCCC1)[C@@H](O)c1cc(Cl)ccn1` (stereo in doubt) [Example 26] showed an IC50 in test [1] of more than 2000 nM.

In test [1], `O=C(CC1Cc2ccccc2C1)N[C@H](CN1CCCC1)[C@H](O)c1cc(Cl)ccn1` (stereo in doubt) [Example 23, (+/-)-N-(1-(4-chloropyridin-2-yl)-1-hydroxy-3-(pyrrolidin-1-yl)propan-2-yl)-2-(2,3-dihydro-1H-inden-2-yl)acetamide] registered an IC50 of 16.1 nM.

On to `COc1cncc([C@@H](O)[C@@H](CN2CCCC2)NC(=O)CC2Cc3ccccc3C2)c1` [Example 9, 2-(2,3-dihydro-1H-inden-2-yl)-N-((1R,2R)-1-hydroxy-1-(5-methoxypyridin-3-yl)-3-(pyrrolidin-1-yl)propan-2-yl)acetamide], for which the IC50 against GCS in MDCKII cells is more than 1000 nM; in test [1], more than 5000 nM.

With `COc1ccc([C@@H](O)[C@@H](CN2CC[C@@H](F)C2)NC(=O)CC2Cc3ccccc3C2)nc1` [Example 19, 2-(2,3-dihydro-1H-inden-2-yl)-N-((1S,2R)-3-((R)-3-fluoropyrrolidin-1-yl)-1-hydroxy-1-(5-methoxypyridin-2-yl)propan-2-yl)acetamide], the IC50 is 13.9 nM against GCS in MDCKII cells and 82 nM in test [1].

In the case of `CC(C)(C)Oc1ccc([C@H](O)[C@H](CN2CCCC2)NC(=O)CC2Cc3ccccc3C2)nc1` [Example 18, N-((1R,2S)-1-(5-(tert-butoxy)pyridin-2-yl)-1-hydroxy-3-(pyrrolidin-1-yl)propan-2-yl)-2-(2,3-dihydro-1H-inden-2-yl)acetamide], the IC50 in test [1] was more than 2000 nM.

Turning to `COc1ccnc([C@@H](O)[C@@H](CN2CCCC2)NC(=O)CC2Cc3ccccc3C2)c1` [Example 12, 2-(2,3-dihydro-1H-inden-2-yl)-N-((1S,2R)-1-hydroxy-1-(4-methoxypyridin-2-yl)-3-(pyrrolidin-1-yl)propan-2-yl)acetamide], the 50% inhibitory concentration (IC50) worked out at 79.5 nM against GCS in MDCKII cells and 24900 nM in test [1].

The molecule `O=C(CC1Cc2ccccc2C1)N[C@H](CN1CCCC1)[C@H](O)c1ccnc(Cl)c1` [Example 27, N-((1R,2R)-1-(2-chloropyridin-4-yl)-1-hydroxy-3-(pyrrolidin-1-yl)propan-2-yl)-2-(2,3-dihydro-1H-inden-2-yl)acetamide] came in with an IC50 on GCS in MDCKII cells of 66.6 nM. In other words, the double-digit nanomolar range.

Turning to `COc1ccc([C@@H](O)[C@@H](CN2CC3CC3C2)NC(=O)CC2Cc3ccccc3C2)nc1` (stereo partly drawn) [Example 15, N-((1S,2R)-3-(3-azabicyclo[3.1.0]hexan-3-yl)-1-hydroxy-1-(5-methoxypyridin-2-yl)propan-2-yl)-2-(2,3-dihydro-1H-inden-2-yl)acetamide], the IC50 turned out to be 9.3 nM against GCS in MDCKII cells and 21.3 nM in test [1].

For the molecule `COc1ccc(C(O)[C@@H](CN2CCCC2)NC(=O)CC2Cc3ccccc3C2)nc1` (stereo in doubt) [Example 2, 2-(2,3-dihydro-1H-inden-2-yl)-N-((1R,2R)-1-hydroxy-1-(5-methoxypyridin-2-yl)-3-(pyrrolidin-1-yl)propan-2-yl)acetamide], the IC50 on GCS in MDCKII cells was found to be 6.8 nM; in test [1] it was 24.8 nM.

On to `CC(C)(C)Oc1ccc([C@@H](O)[C@@H](CN2CCCC2)NC(=O)CC2Cc3ccc(F)cc3C2)nc1` (stereo partly drawn) [Example 24, N-((1S,2R)-1-(5-(tert-butoxy)pyridin-2-yl)-1-hydroxy-3-(pyrrolidin-1-yl)propan-2-yl)-2-(5-fluoro-2,3-dihydro-1H-inden-2-yl)acetamide], for which the IC50 on GCS in MDCKII cells is 23.8 nM; in test [1], 568 nM.

`COc1ccc([C@H](O)[C@H](CN2CCCC2)NC(=O)CC2Cc3ccccc3C2)nc1` [Example 11, 2-(2,3-dihydro-1H-inden-2-yl)-N-((1R,2S)-1-hydroxy-1-(5-methoxypyridin-2-yl)-3-(pyrrolidin-1-yl)propan-2-yl)acetamide]: the IC50 in test [1] was more than 2000 nM.

With `CC(C)(C)Oc1ccc([C@@H](O)[C@@H](CN2CCCC2)NC(=O)CC2Cc3ccccc3C2)nc1` [Example 7, N-((1S,2R)-1-(5-(tert-butoxy)pyridin-2-yl)-1-hydroxy-3-(pyrrolidin-1-yl)propan-2-yl)-2-(2,3-dihydro-1H-inden-2-yl)acetamide], the IC50 against GCS in MDCKII cells is 7.9 nM; in test [1], 16.3 nM.
